# Results: ChEMBL document CHEMBL4190243, “Natural alkaloids as P-gp inhibitors for multidrug resistance reversal in cancer” (Eur J Med Chem, 2017)
# Residues, ends and D or L forms follow the SMILES beside them.
# Legend:
# Mus musculus = organism: Mus musculus; assay: Inhibition of P-gp in mouse P388/DOX cells assessed as potentiation of doxorubicin-induced cytotoxicity by measuring fold reduction in doxorubicin IC50; format: cell-based
# Homo sapiens [1] = organism: Homo sapiens; assay: Inhibition of P-gp in human HCT116/VM46 cells assessed as potentiation of doxorubicin-induced cytotoxicity by measuring fold reduction in doxorubicin IC50; format: cell-based
# Homo sapiens [2] = organism: Homo sapiens; assay: Inhibition of P-gp in human HCT116/VM46 cells assessed as potentiation of vinblastine-induced cytotoxicity by measuring fold reduction in vinblastine IC50; format: cell-based
# Homo sapiens [3] = organism: Homo sapiens; assay: Inhibition of P-gp in human CCRF-CEM/VLB100 cells assessed as potentiation of vinblastine-induced cytotoxicity by measuring fold reduction in vinblastine IC50
# Homo sapiens [4] = organism: Homo sapiens; assay: Inhibition of P-gp in human K562/VCR cells assessed as potentiation of doxorubicin-induced cytotoxicity by measuring fold reduction in doxorubicin IC50; format: cell-based
# Homo sapiens [5] = organism: Homo sapiens; assay: Inhibition of P-gp in human SW620/AD300 cells assessed as potentiation of doxorubicin-induced cytotoxicity by measuring fold reduction in doxorubicin IC50; format: cell-based
# [6] = target: ATP-dependent translocase ABCB1 (Homo sapiens, UniProt P08183); assay: Inhibition of MDR1 in human KB-C2 cells assessed as potentiation of vincristine-induced cytotoxicity by measuring fold reduction in vincristine IC50; format: cell-based
# NCI-H460 = assay: Inhibition of P-gp in human NCI-H460 resistant cells assessed as potentiation of doxorubicin-induced cytotoxicity by measuring fold reduction in doxorubicin IC50; format: cell-based
# Homo sapiens [7] = organism: Homo sapiens; assay: Inhibition of P-gp in human Bel7402/5-FU cells assessed as increase in intracellular accumulation of doxorubicin at 0.4 mg/ml preincubated for 48 hrs followed by doxorubicin addition measured after 2 hrs by FACS analysis relative to control; format: cell-based
# Homo sapiens [8] = organism: Homo sapiens; assay: Inhibition of P-gp in human Bel7402/5-FU cells assessed as increase in intracellular accumulation of Rh123 at 0.8 mg/ml preincubated for 48 hrs followed by Rh123 addition measured after 2 hrs by FACS analysis relative to control; format: cell-based
# Homo sapiens [9] = organism: Homo sapiens; assay: Inhibition of P-gp in human KBV1 cells assessed as potentiation of vinblastine-induced cytotoxicity by measuring fold reduction in vinblastine IC50 at 50 uM; format: cell-based
# Homo sapiens [10] = organism: Homo sapiens; assay: Inhibition of P-gp in human MCF7/DOX cells assessed as potentiation of doxorubicin-induced cytotoxicity by measuring doxorubicin ED50; format: cell-based
# Homo sapiens [11] = organism: Homo sapiens; assay: Inhibition of P-gp in human KB/VCR cells assessed as potentiation of vincristine-induced cytotoxicity by measuring fold reduction in vincristine IC50; format: cell-based
# Homo sapiens [12] = organism: Homo sapiens; assay: Inhibition of P-gp in human MCF7/DOX cells assessed as potentiation of doxorubicin-induced cytotoxicity by measuring fold reduction in doxorubicin IC50 at 5 uM; format: cell-based
# Homo sapiens [13] = organism: Homo sapiens; assay: Inhibition of P-gp in human A549/DDP cells assessed as potentiation of doxorubicin-induced cytotoxicity; format: cell-based
# Homo sapiens [14] = organism: Homo sapiens; assay: Inhibition of P-gp in human MCF7/DOX cells assessed as potentiation of mitoxantrone-induced cytotoxicity by measuring fold reduction in mitoxantrone IC50 at 50 uM after 48 hrs by MTT assay; format: cell-based
# Homo sapiens [15] = organism: Homo sapiens; assay: Inhibition of P-gp in human A549/PA cells assessed as synergistic cytotoxicity with paclitaxel after 48 hrs by SRB assay; format: cell-based
# Homo sapiens [16] = organism: Homo sapiens; assay: Inhibition of P-gp in human Caco2 cells assessed as potentiation of doxorubicin-induced cytotoxicity by measuring fold reduction in doxorubicin IC50; format: cell-based
# [17] = Inhibition of P-gp in human HCT116/VM46 cells assessed as potentiation of paclitaxel-induced cytotoxicity; format: cell-based; conditions: HCT-116/VM46
# Homo sapiens [18] = organism: Homo sapiens; assay: Inhibition of P-gp in human A549/DDP cells assessed as potentiation of doxorubicin-induced cytotoxicity by measuring fold reduction in doxorubicin IC50 at 5 uM; format: cell-based
# Homo sapiens [19] = organism: Homo sapiens; assay: Inhibition of P-gp in human K562/DOX cells assessed as potentiation of doxorubicin-induced cytotoxicity by measuring fold reduction in doxorubicin IC50 at 5 uM; format: cell-based
# Homo sapiens [20] = organism: Homo sapiens; assay: Inhibition of P-gp in human A549/DDP cells assessed as potentiation of […]-induced cytotoxicity by measuring fold reduction in doxorubicin IC50 at 5 uM; format: cell-based
# Homo sapiens [21] = organism: Homo sapiens; assay: Inhibition of P-gp in human SW620/DOX300 cells assessed as potentiation of doxorubicin-induced cytotoxicity by measuring fold reduction in doxorubicin IC50; format: cell-based
# K562/A02 = assay: Inhibition of P-gp in human K562/A02 cells assessed as potentiation of doxorubicin-induced cytotoxicity by measuring fold reduction in doxorubicin IC50 at 5 uM; format: cell-based
# Homo sapiens [22] = organism: Homo sapiens; assay: Inhibition of P-gp in human KB/VCR cells assessed as potentiation of vincristine-induced cytotoxicity by measuring fold reduction in vincristine IC50 at 5 uM; format: cell-based
# Sequence of ATP-dependent translocase ABCB1 (P08183 whole entry): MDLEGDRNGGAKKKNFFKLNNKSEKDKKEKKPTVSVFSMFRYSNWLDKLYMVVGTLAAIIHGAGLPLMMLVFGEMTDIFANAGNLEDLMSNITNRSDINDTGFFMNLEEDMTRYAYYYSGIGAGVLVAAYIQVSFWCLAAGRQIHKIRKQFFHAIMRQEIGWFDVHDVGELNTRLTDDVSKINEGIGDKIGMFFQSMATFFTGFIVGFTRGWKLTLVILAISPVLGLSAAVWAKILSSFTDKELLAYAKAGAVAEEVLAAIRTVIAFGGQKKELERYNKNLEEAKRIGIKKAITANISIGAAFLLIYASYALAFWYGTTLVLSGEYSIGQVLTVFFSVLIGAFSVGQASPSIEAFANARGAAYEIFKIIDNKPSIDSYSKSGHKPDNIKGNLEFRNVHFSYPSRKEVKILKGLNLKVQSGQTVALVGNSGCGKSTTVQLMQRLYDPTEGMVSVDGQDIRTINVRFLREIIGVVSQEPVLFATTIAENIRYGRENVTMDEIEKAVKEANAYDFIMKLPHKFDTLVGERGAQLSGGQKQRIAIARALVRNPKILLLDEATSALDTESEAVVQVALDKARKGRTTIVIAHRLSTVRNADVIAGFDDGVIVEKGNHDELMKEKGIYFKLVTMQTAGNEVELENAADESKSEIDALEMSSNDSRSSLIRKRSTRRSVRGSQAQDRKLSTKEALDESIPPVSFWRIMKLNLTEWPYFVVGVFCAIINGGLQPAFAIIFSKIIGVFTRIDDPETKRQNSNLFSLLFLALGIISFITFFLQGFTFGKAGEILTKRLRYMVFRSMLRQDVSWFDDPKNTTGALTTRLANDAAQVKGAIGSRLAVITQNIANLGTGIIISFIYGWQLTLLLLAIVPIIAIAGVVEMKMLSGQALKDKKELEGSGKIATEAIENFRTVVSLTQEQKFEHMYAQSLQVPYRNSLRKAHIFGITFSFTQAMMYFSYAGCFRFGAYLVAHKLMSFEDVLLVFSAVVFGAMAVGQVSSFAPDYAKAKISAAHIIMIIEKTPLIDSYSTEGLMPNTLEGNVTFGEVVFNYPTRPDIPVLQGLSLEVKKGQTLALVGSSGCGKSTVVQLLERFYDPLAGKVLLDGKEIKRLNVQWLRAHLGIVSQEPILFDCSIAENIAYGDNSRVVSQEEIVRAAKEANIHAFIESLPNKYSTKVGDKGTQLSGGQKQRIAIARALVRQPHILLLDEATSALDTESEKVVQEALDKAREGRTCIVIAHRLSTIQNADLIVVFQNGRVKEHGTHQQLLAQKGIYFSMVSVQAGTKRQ
molecule,measurement,setting,value
COc1ccc(CCn2cc(-c3ccc(OC)c(OC)c3)c3c4cc(OC)c(OC)cc4oc(=O)c32)cc1OC,fold change (FC),Mus musculus,350
same,fold change (FC),Homo sapiens [1],350
same,fold change (FC),Homo sapiens [2],35
same,fold change (FC),Homo sapiens [3],6.2
O=C1CCC[C@@H]2[C@H]3CCCN4CCC[C@@H](CN12)[C@@H]34,fold change (FC),Homo sapiens [4],2.2
CN1c2ccccc2[C@@]23C[C@H]4C(=O)N5[C@H]6N(C[C@@]7(C)O[C@@H]7C2)c2ccccc2[C@@]6(C)C[C@H]5C(=O)N4[C@H]13,fold change (FC),Homo sapiens [5],2
COc1cc2c(cc1O)CCN[C@]21CS[C@@H]2c3c(OC(C)=O)c(C)c4c(c3[C@H](COC1=O)N1[C@@H]2[C@H]2c3c(cc(C)c(OC)c3O)C[C@@H]([C@@H]1O)N2C)OCO4 [TRABECTEDIN],fold change (FC),[6],16
H-KILRGVCKKIMRTFLRRISKDILTGKK-OH,fold change (FC),NCI-H460,5
CC(C)[C@H](NC(=O)[C@H](CO)NC(=O)[C@@H](N)Cc1ccc(O)cc1)C(=O)O (H-Tyr-Ser-Val-OH),fold change (FC),Homo sapiens [7],3
same,fold change (FC),Homo sapiens [8],1 to 2
COC1=C(C)C(=O)O/C1=C1\O[C@@]23CCCN4CCC[C@@H](O2)[C@H]4[C@H]3[C@@H]1C,fold change (FC),Homo sapiens [9],4
CC(/C=C/C#C/C=C/C=C(\C)C(=O)N[C@@H](C)CO)=C\[C@@H](C)[C@@H](O)/C(C)=C/[C@@H](C)CCc1ccccc1,ED50,Homo sapiens [10],0.2 nM
CC[C@]12CCCN[C@]13/C(=C\C(=O)OC)c1ccccc1N3C(=O)CC2,fold change (FC),Homo sapiens [11],4.7
O=C(/C=C/C=C/c1ccc2c(c1)OCO2)N1CCCCC1,fold change (FC),Homo sapiens [12],32
same,fold change (FC),Homo sapiens [13],14
same,fold change (FC),Homo sapiens [14],7
COc1ccc2c3c(c4cc(OC)c(OC)cc4c2c1)C[C@H]1CCCN1C3,CI,Homo sapiens [15],0.45
C[n+]1cc2c3c(ccc2c2ccc4cc5c(cc4c21)OCO5)OCO3,fold change (FC),Homo sapiens [16],18
COc1ccc(C2=C(c3ccc(OC)c(OC)c3)C(=O)N(CCc3cc(Br)c(OCc4ccccc4)c(OCCN4CCOCC4)c3)C2=O)cc1OC,EC50,[17],423 nM
C=CC(C)(C)[C@]12c3ccccc3N(C(C)=O)[C@H]1N1C(=O)[C@@H](C)n3c(nc4ccccc4c3=O)[C@@H]1C2O (stereo partly specified),fold change (FC),Homo sapiens [18],8
same,fold change (FC),Homo sapiens [19],5
same,fold change (FC),Homo sapiens [20],8
COC(=O)c1c(-c2ccc(O)cc2)c(-c2ccc(O)cc2)cn1CC(=O)c1ccc(OC)cc1,fold change (FC),Homo sapiens [21],5
CO[C@@]1(C)N(C/C=C/c2ccccc2)C(=O)C2=C[C@@]3(C(=O)N(C)c4ccccc43)C(=O)N21,fold change (FC),K562/A02,16
same,fold change (FC),Homo sapiens [12],42
same,fold change (FC),Homo sapiens [22],10
